Assay results as given in patent US10106515B2, “1-(cyclopent-2-en-1-yl)-3-(2-hydroxy-3-(arylsulfonyl)phenyl)urea derivatives as CXCR2 inhibitors” (GLAXOSMITHKLINE INTELLECTUAL PROPERTY DEVELOPMENT LIMITED, priority 2014, dated 2018).
Counter-ions that a name gives are not always drawn. Like-named read-outs stand apart in the source and are kept apart here.

How the values were obtained:
[1] = biological target: T1, recombinant human CXCR2 (Homo sapiens, UniProt P25025); test: CXCR2 Tango assay; type: cell-based; settings: mean pIC50 of multiple test results; stimulated with 80 nM hCXCL1; reporter gene blue/green emission ratio; read-out: pIC50 (CXCR2 Tango assay) (converted)
T1 construct: TEV protease site; Gal4-VP16 transcription factor
T1 sequence (P25025 1-360): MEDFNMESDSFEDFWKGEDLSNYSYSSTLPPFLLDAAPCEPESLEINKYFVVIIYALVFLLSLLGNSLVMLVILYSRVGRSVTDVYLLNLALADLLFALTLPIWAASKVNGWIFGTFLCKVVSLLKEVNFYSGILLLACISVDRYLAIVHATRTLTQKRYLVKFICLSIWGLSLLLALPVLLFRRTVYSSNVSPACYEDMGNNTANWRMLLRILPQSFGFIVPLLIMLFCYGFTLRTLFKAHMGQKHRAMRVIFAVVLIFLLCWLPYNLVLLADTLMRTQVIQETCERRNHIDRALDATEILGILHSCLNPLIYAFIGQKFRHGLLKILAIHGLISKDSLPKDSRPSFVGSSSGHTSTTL
In short: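 Mean pIC50 comes from sigmoidal fits of the blue/green (460/530 nm) CCF4-AM ratio, normalized between hCXCL1-stimulated and DMSO controls. Compounds in 10-point dose response were incubated overnight at 37 °C with recombinant human CXCR2 Tango cells (~10,000/well) and 80 nM hCXCL1, with reporter read-out via arrestin-TEV release of Gal4-VP16.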

[2] = tested on: upregulation of CD11b in GROα stimulated neutrophils in human whole blood; test: Human whole blood assay (CD11b upregulation); type: cell-based; settings: Neutrophil, inhibition of CD11b upregulation, GROα 33 nM final, flow cytometry, read-out: pIC50 (human whole blood assay) (converted)
Method: The whole blood assay tested the compounds' ability to inhibit the upregulation of CD11b in GROα stimulated neutrophils in human whole blood.
Blood was withdrawn by venipuncture from consented adults and poured into a Sterilin tube containing an anti-coagulant Heparin (10 uL/mL of blood). All the test compounds were dissolved in DMSO to 4 mM and serial diluted across the plate, 1 in 3 to provide 10 point dose response curves. The compounds were then diluted 100 fold in -PBS [Phosphate buffered saline (without Calcium Chloride and Magnesium Chloride)] after which, 1 uL was dispensed in 96 U bottom Costar plates using an FX.
10 uL of blood was transferred to the compound plate using a multi-channel pipette, gently tapped and incubated for 15 minutes, at 37° C. After 15 minutes, the stimulant GROα was diluted to 100 nM in 0.1% BSA (Albumin Bovine Serum)-PBS and 5 uL is dispensed across the whole plate for a final concentration of 33 nM. The plate was gently tapped and incubated further for 15 minutes at 37° C. The plate was placed on ice for 1 minute before addition of 10 uL of an antibody cocktail consisting of CD11b-FITC (40 ug/mL) purchased from BioLegend (address: Cambridge Bioscience, Munro House, Trafalgar Way, Bar Hill, Cambridge, UK) and CD16-PE purchased from BD Pharmingen (address: The Danby Building, Edmung Halley Road, Oxford Science Park, Oxford, UK) (stock concentration 100 tests, 2 mL stock volume is diluted 1 in 5). The plate was placed on ice for 1 hour in the dark. The cells were then fixed using 200 uL/well of 1×FACS (Flow Activated Cell Sorting) Lyse solution (Becton and Dickinson-BD) and on ice for 20 minutes in the dark. The plate was centrifuged at 1600 rpm for 5 minutes and re-suspended with 200 uL of ice cold PBS. This step was repeated twice and on the final step the plate was re-suspended with 50 uL of ice cold -PBS for flow Cytometric analysis.
Samples were run on a Becton and Dickinson (BD)-Acurri C6 Flow Cytometer using a HyperCyt sampling apparatus (IntelliCyt) with a flow rate 2 uL/sec. CD11b upregulation is monitored in neutrophils and identified using a combination of both side scatter and CD16 expression.

Structure (SMILES)	IC50 [1] [nM]	IC50 ([2]; Homo sapiens) [nM]	IC50 [2] [nM]
CC1=CCC[C@H]1NC(=O)Nc1ccc(Cl)c(S(=O)(=O)[C@H]2C[C@H](N(C)C)C2)c1O [Compound 193, 1-(4-chloro-3-((trans-3-(dimethylamino)cyclobutyl)sulfonyl)-2-hydroxyphenyl)-3-((R)-2-methylcyclopent-2-en-1-yl)urea]	≤ 1		25.1 to 2510
CC1=CCC[C@H]1NC(=O)Nc1ccc(Cl)c(S(=O)(=O)C(C)(F)F)c1O [Compound 194, (R)-1-(4-chloro-3-((1,1-difluoroethyl)sulfonyl)-2-hydroxyphenyl)-3-(2-methylcyclopent-2-en-1-yl)urea]	≤ 1		25.1 to 2510

The remaining lines, values ahead:

IC50 [1] [nM]	IC50 ([2]; Homo sapiens) [nM]	IC50 [2] [nM]	Structure (SMILES)
≤ 1	25.1 to 2510		CC1=CCC[C@H]1NC(=O)Nc1ccc(Cl)c(S(=O)(=O)[C@H]2C[C@H](N3CCCC3)C2)c1O [Compound 192, 1-(4-chloro-2-hydroxy-3-((trans-3-(pyrrolidin-1-yl)cyclobutyl)sulfonyl)phenyl)-3-((R)-2-methylcyclopent-2-en-1-yl)urea]
≤ 10		25.1 to 2510	CC1=CCC[C@H]1NC(=O)Nc1ccc(Cl)c(S(=O)(=O)N2CCNCC2)c1O [Compound 199, (R)-1-(4-chloro-2-hydroxy-3-(piperazin-1-ylsulfonyl)phenyl)-3-(2-methylcyclopent-2-en-1-yl)urea, trifluoroacetic acid salt]
≤ 1		25.1 to 2510	CCN1CCC(F)(S(=O)(=O)c2c(Cl)ccc(NC(=O)N[C@@H]3CCC=C3Cl)c2O)CC1 [Compound 200, (R)-1-(4-chloro-3-((1-ethyl-4-fluoropiperidin-4-yl)sulfonyl)-2-hydroxphenyl)-3-(2-chlorocyclopent-2-en-1-yl)urea]
